Experimental data as given in paper PMC12386809, “Phenanthrene Monomers and Dimers from Juncus tenuis with Antiproliferative Activity and Synergistic Effect with Doxorubicin Against Human Colon Cancer Cell Lines” (International Journal of Molecular Sciences, 2025).
Where two headings read alike, the source gives them in different places.

Legend:
[1] = system: COLO 205 (doxorubicin-sensitive) human colonic adenocarcinoma cells; experiment: MTT antiproliferative assay, COLO 205; assay type: cell-based; settings: read-out: IC50 (µM) ± SD COLO 205
Method: (§1) The antiproliferative effects of the isolated phenanthrenes (compounds 1–19) were evaluated using human cancer cell lines, including doxorubicin-sensitive colonic adenocarcinoma COLO 205 and multidrug-resistant colonic adenocarcinoma COLO 320/MDR-LRP (which expresses P-glycoprotein [MDR1] and LRP), as well as non-cancerous human lung fibroblast CCD-19Lu cells. CCD-19Lu was chosen because it is a well-characterized, non-tumorigenic cell line commonly used to assess general cytotoxicity. Moreover, data from the literature support the use of lung fibroblast cell lines—including CCD-19Lu—as normal controls in studies involving colon cancer cells such as Colo 205 and Colo 320 [33]. The thiazolyl blue tetrazolium bromide (MTT) assay was employed to determine the concentration of each compound required to inhibit 50% of the cell viability (IC50), as summarized in Table 3.
(§2) The human colon adenocarcinoma cells—COLO 205 (CCL-222, doxorubicin-sensitive) and COLO 320/MDR-LRP (ATCC-CCL-220.1, multidrug-resistant, expressing P-gp)—were cultured in RPMI 1640 medium supplemented with 10% heat-inactivated fetal bovine serum, 2 mM of L-glutamine, 1 mM of sodium pyruvate, and 100 mM of HEPES. The non-cancerous human lung fibroblast cell line CCD-19Lu was maintained in Eagle’s Minimal Essential Medium (EMEM; containing 4.5 g/L of glucose) supplemented with a non-essential amino acid mixture, selected vitamins, and 10% heat-inactivated fetal bovine serum. All of the cell lines were detached using 0.25% trypsin and 0.02% EDTA for 5 min at 37 °C. The cell lines were obtained from LGC Promochem (Teddington, England).
(§3) Human colonic adenocarcinoma cell lines—doxorubicin-sensitive COLO 205 and multidrug-resistant COLO 320—as well as the non-cancerous human lung fibroblast cell line CCD-19Lu were used to evaluate the effects of the test compounds on cell proliferation. The assays were conducted in 96-well flat-bottomed microtiter plates. Stock solutions of the compounds were prepared in dimethyl sulfoxide (DMSO), with the final DMSO concentration kept below 1% in all samples. The compounds were diluted in 100 µL of the appropriate culture medium. Adherent cells were cultured in EMEM supplemented with 10% heat-inactivated fetal bovine serum and seeded into 96-well plates at a density of 6 × 10^3 cells per 100 µL per well. The cells were allowed to adhere for 24 h at 37 °C in a humidified incubator with 5% CO2. After incubation, the medium was removed and replaced with 100 µL of fresh medium. Serial dilutions of the compounds were prepared in separate plates and added to the cells, starting from a concentration of 100 µM with twofold serial dilutions (final concentration range: 100–0.19 µM). The cells were then incubated for 72 h at 37 °C. At the end of the incubation period, 20 µL of thiazolyl blue tetrazolium bromide (MTT) solution (5 mg/mL, Sigma) was added to each well. After 4 h of incubation at 37 °C, 100 µL of 10% sodium dodecyl sulfate (SDS) in 0.01 M HCl was added to solubilize the formazan crystals, and the plates were incubated overnight at 37 °C. Cell viability was assessed by measuring the optical density (OD) at 540/630 nm using a Multiscan EX ELISA reader (Thermo Labsystems, Cheshire, WA, USA).
(§4) The inhibitory concentration that reduced cell growth by 50% (IC50) was determined from the dose–response curves. The percent inhibition was calculated using the formula100 − ((OD_sample − OD_medium control)/(OD_cell control − OD_medium control)) × 100
(§5) Dose–response curves were generated by plotting the percent inhibition against the logarithm of the compound concentrations and fitted using Prism5 software (Version 6, GraphPad Software Inc., San Diego, CA, USA). The IC50 values were derived from four independent experiments conducted in parallel for each cell line and are reported as the mean values.

[2] = system: COLO 320/MDR-LRP multidrug-resistant human colonic adenocarcinoma cells; experiment: MTT antiproliferative assay, COLO 320; assay type: cell-based; settings: COLO 320 (multidrug-resistant), read-out: IC50 (µM) ± SD COLO 320
Method: as §1, §2, §3, §4, §5

[3] = system: CCD-19Lu non-cancerous human lung fibroblast cells; experiment: MTT antiproliferative assay, CCD-19Lu; assay type: cell-based; settings: 72 h, CCD-19Lu non-tumorigenic fibroblasts, read-out: IC50 (µM) ± SD CCD-19Lu
Method: as §1, §2, §3, §4, §5

[4] = system: multidrug-resistant COLO 320 cells; experiment: Drug combination assay with doxorubicin (Chou-Talalay, MTT); assay type: cell-based, human; settings: for Interaction: interaction with doxorubicin in COLO 320, class from CI; for CI at ED50 (combination index): combination with doxorubicin, COLO 320, 72 h, Chou-Talalay
Method: One promising approach involves the discovery of new bioactive natural products. To explore this, a chemosensitivity assay was conducted to examine the in vitro interactions between the isolated compounds and the antineoplastic agent doxorubicin, a substrate of P-glycoprotein (P-gp). A combination chemotherapy model was applied using human COLO 320 colon carcinoma cells. The combination index (CI), calculated according to the Chou–Talalay method, was used to evaluate drug–drug interactions, classifying them as synergistic (CI < 1), additive (CI = 1), or antagonistic (CI > 1) (Table 4).
The multidrug-resistant COLO 320 cell line was used to perform the drug combination assay. Doxorubicin (2 mg/mL, Teva Pharmaceuticals, Budapest, Hungary) was serially diluted horizontally, starting with 8.6 µM. The resistance modifier was subsequently diluted vertically, with the starting concentration determined based on the IC50 value. Doxorubicin was diluted horizontally in 100 µL, while the resistance modifiers were diluted vertically in 50 µL in the microtiter plate. The compounds and doxorubicin were prepared as separate dilutions. The cells were seeded at a density of 6 × 10^3 cells per well into 100 µL of medium and incubated for 24 h at 37 °C in a 5% CO2 atmosphere prior to treatment. After this period, the culture medium was removed, and 50 µL of fresh medium was added to each well, followed by the addition of 50 µL of the diluted compounds, resulting in a final volume of 200 µL per well. The plates were then incubated for 72 h at 37 °C under 5% CO2. The cell viability was assessed at the end of incubation using the MTT assay, as described previously. Drug interactions were analyzed using CompuSyn software (Version 1.00).
The dose–response curves for individual agents and their combinations were fitted to a linear model based on the median-effect equation to calculate the median effective dose (IC50) and the slope (m). The quality of the fit was evaluated using the linear correlation coefficient (r), and only data with r > 0.90 are reported. The extent of drug interaction was quantified using the combination index (CI), where CI ≈ 1 indicated an additive effect, CI < 1 signified synergy, and CI > 1 denoted antagonism.

Structure (SMILES)	IC50 ([1]; Homo sapiens, COLO 205, 72 h)	IC50 ([2]; Homo sapiens, COLO 320, 72 h)	IC50 ([1]; 72 h)	IC50 [3]	IC50 ([2]; 72 h)	Interaction [4]	CI at ED50 (combination index) [4]	IC50 ([1]; Homo sapiens, 72 h)	IC50 ([2]; Homo sapiens, 72 h)
C=Cc1cc(O)cc2ccc3c(c12)C=CC(=O)C3(C)O (centres unmarked) [Compound 1, Tenuin A]	> 100 µM	> 100 µM		> 100 µM					
C=Cc1cc2c(ccc3c(C)c(O)ccc32)cc1CO [Compound 2, tenuin B]	48.4 µM	38.3 µM	48.4 ± 1.03 µM	96.08 ± 0.82 µM	38.3 ± 1.84 µM	very strong synergism (CI < 0.1 indicates very strong synergism)			
C=Cc1cc(O)c(CO)c2c1-c1ccc(O)c(C)c1CC2 [Compound 3, 2,7-dihydroxy-8-hydroxymethyl-1-methyl-5-vinyl-9,10-dihydrophenanthrene]	> 100 µM	> 100 µM		96.8 ± 1.79 µM					
C=Cc1cc(O)cc2c1-c1cc(-c3cc4c(c(C)c3O)CCc3cc(O)cc(C(C)OC)c3-4)c(O)c(C)c1CC2 (centres unmarked) [Compound 4, tenuin D]	7.6 ± 0.13 µM	15.7 ± 2.2 µM		9.93 ± 0.84 µM		synergism (0.3 < CI < 0.7, synergism)	0.669		
C=Cc1cc(O)cc2c1-c1cc(-c3c(O)cc4c(c3C=C)-c3ccc(O)c(C)c3CC4)c(O)c(C)c1CC2 [Compound 5, 1,1′-dimethyl-5,5′-divinyl-9,9′,10,10′-tetrahydro-[6,3′-biphenanthrene]-2,2′,7,7′-tetraol]	11.6 µM	12 ± 1.58 µM	11.6 ± 0.22 µM	13.8 ± 0.82 µM		synergism (0.3 < CI < 0.7, synergism)	0.433		
C=Cc1cc(O)cc2ccc3c(C)c(O)ccc3c12 [Compound 6, dehydroeffusol]				58.17 ± 0.51 µM			0.266	36.7 ± 2.29 µM	35.6 ± 3.89 µM
C=Cc1c(C)c(O)cc2ccc3c(C)c(O)ccc3c12 [Compound 7, dehydrojuncusol]				42.04 ± 0.39 µM			0.117	28.16 ± 0.27 µM	45.3 ± 2.78 µM
C=Cc1c(CO)ccc2c1ccc1c(C)c(O)ccc12 [Compound 9]	> 100 µM	42.6 ± 2.98 µM		75.3 ± 2.59 µM		moderate antagonism	1.427		
C=Cc1cc(O)cc2c1-c1ccc(OC)c(C)c1CC2 [Compound 12]	34.73 ± 0.1 µM	25.5 ± 2.05 µM		28.7 ± 1.11 µM		moderate antagonism	1.347		

Now from value to molecule, other results behind:

IC50 ([1]; Homo sapiens, COLO 205, 72 h)	IC50 ([2]; Homo sapiens, COLO 320, 72 h)	IC50 ([1]; 72 h)	Structure (SMILES)	IC50 [3]	IC50 ([2]; 72 h)	Interaction [4]	CI at ED50 (combination index) [4]	IC50 ([1]; Homo sapiens, 72 h)	IC50 ([2]; Homo sapiens, 72 h)
37 ± 3.28 µM	35.2 ± 4.68 µM		C=Cc1cc(CO)cc2c1-c1ccc(O)c(C)c1CC2 [Compound 13]	69.3 ± 1.77 µM			0.163		
57.2 ± 3.98 µM	39.58 ± 0.27 µM		C=Cc1cc(C=O)cc2c1-c1ccc(O)c(C)c1CC2 [Compound 14]	66.4 ± 1.58 µM			0.219		
45.4 ± 2.16 µM	47.6 ± 1.01 µM		C=Cc1cc(C(=O)O)cc2c1-c1ccc(O)c(C)c1CC2 [Compound 15]	> 100 µM		antagonism (1.45 < CI < 3.3, antagonism)	1.927		
35.8 ± 2.7 µM	19.2 ± 0.32 µM		C=Cc1c(C)c(O)cc2c1-c1ccc(OC)c(C)c1CC2 [Compound 16, compressin A]	28 ± 2.73 µM		antagonism (1.45 < CI < 3.3, antagonism)	2.312		
43.2 ± 3.82 µM	35.1 ± 1.1 µM		C=Cc1cc(O)c(C)c2c1-c1ccc(O)c(C)c1CC2 [Compound 17, 2,7-dihydroxy-1,8-dimethyl-5-vinyl-9,10-dihydrophenanthrene]	64.7 ± 3.36 µM		synergism (0.3 < CI < 0.7, synergism)	0.670		
10.9 µM	17.3 ± 0.87 µM	10.9 ± 0.51 µM	C=Cc1cc(O)cc2c1-c1cc(-c3cc4c(c(C)c3O)CCc3cc(O)cc(C=C)c3-4)c(O)c(C)c1CC2 [Compound 19, effususin A]	18.8 ± 0.06 µM					
0.53 ± 0.05 µM	1.72 ± 0.5 µM		COc1cccc2c1C(=O)c1c(O)c3c(c(O)c1C2=O)C[C@@](O)(C(=O)CO)C[C@@H]3O[C@H]1C[C@H](N)[C@H](O)[C@H](C)O1 [doxorubicin]	1.03 ± 0.18 µM					
